From patent publication US12466834B2, “Imidazodiazepinediones and methods of use thereof” (GFB (ABC), LLC, priority 2018, dated 2025)

Target: T1, human TRPC5 (Homo sapiens, UniProt Q9UL62)
T1 construct: expressed in transfected cells
T1 sequence (Q9UL62 1-973): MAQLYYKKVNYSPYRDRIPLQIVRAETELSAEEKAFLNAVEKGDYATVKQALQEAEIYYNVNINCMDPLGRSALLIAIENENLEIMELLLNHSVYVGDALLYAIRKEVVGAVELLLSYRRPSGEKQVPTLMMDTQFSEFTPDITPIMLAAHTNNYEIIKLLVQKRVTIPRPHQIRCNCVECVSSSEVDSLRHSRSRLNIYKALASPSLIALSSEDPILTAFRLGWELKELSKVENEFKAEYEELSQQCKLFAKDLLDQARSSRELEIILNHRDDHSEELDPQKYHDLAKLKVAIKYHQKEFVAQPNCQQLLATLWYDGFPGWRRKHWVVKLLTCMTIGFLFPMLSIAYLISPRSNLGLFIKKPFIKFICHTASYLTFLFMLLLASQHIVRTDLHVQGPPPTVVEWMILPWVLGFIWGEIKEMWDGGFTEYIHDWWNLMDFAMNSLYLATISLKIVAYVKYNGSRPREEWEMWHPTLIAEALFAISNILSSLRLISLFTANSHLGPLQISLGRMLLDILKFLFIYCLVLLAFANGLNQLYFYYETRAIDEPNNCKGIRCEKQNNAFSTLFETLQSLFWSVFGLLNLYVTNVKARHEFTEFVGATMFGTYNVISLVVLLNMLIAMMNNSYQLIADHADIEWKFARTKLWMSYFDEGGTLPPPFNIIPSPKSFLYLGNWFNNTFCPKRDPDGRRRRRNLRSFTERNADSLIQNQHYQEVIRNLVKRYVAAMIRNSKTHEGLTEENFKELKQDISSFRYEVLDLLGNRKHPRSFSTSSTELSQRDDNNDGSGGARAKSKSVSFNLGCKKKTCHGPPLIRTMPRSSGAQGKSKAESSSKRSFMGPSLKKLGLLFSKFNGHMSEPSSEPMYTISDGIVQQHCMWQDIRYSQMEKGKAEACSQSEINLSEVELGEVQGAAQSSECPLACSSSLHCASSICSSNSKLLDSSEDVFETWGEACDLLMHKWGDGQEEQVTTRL
Assay: Automated patch clamp assay (QPatch), antagonist mode
Type: cell-based
Conditions: HEK-TREx hTRPC5 cells; channel activated with Rosiglitazone 30 μM; normalised to ML-204 block; read-out: Qpatch Potency Range
Method: ICLN-1633 cells (HEK-TREx hTRPC5) expressing TRPC5 were generated as follows. Commercially available HekTrex-293 cells were seeded at 0.7×10^6 cells/well in a 1×6-well plate 24 hrs prior to transfection using 2 mL cell growth media containing no antibiotics (1× DMEM/high glucose (Hyclone #SH30022.02); 10% fetal bovine serum (Sigma) 2 mM sodium pyruvate, 10 mM HEPES). The human TRPC5 coding sequence (NM_012471 with a silent T478C mutation) was cloned into pcDNA5/TO (Invitrogen; Cat No. V103320) using hygromycin as the resistance gene and the plasmid (SEQ ID NO:1) propagated using T-Rex-293 cells (Invitrogen; Cat No. R71007) following manufacturer's directions. On day 2, 2 μg of plasmid DNA plus 6 μl of Xtreme-GENE HP reagent in Optimem (200 μl total volume) was prepared and incubated for 15 min at room temperature. This plasmid solution was then gently overlayed dropwise onto each well and the plate was gently swirled to mix complex with the media for approximately 30 seconds. Transfected cells were incubated at 37° C. in a 10% CO2 incubator for 24 hrs. The transfected cells were harvested and transferred into 2×150 mm dishes containing cell growth media with no antibiotics at 37° C.
The next day selection was initiated to generate a stable pool by adding cell growth media containing 150 μg/mL Hygromycin and 5 μg/mL Blasticidin and cells were allowed to grow. Media with the selection agent was changed every 1-2 days as needed to remove dead cells. After 7 days, the hygromycin concentration was reduced to 75 μg/mL and cells growth was allowed to continue.
Single clones were selected as follows. The stable pool was diluted to 10 cells/mL and seeded (100 μl/well) into 24×96 well plates (˜1 cell/well) and allowed to grow for 7 days in cell growth media. Fresh media (100 μl) was added and the cells allowed to grow for another 1-2 weeks and then stored frozen or used immediately.
The automated electrophysiological assay was carried out at room temperature. On the day of the experiment, TRPC5 cells were cultured according to our Standard Operating Procedure. Briefly, cells were harvested using TrypLE™ Express, re-suspended in serum free medium, added to the automated platform and used within 0.5-3 hours. Internal and external physiological solutions were freshly prepared prior to the assay. The external solution contained: 145 mM NaCl, 4 mM KCl, 2 mM CaCl2, 1 mM MgCl2, 10 mM HEPES, 10 mM glucose, pH 7.4 with NaOH and 310 mOsm/L. The internal solution contained 120 mM L-aspartic acid, 120 mM CsOH·H2O, 20 mM CsCl, 2 mM MgCl2, 8.8 mM CaCl2, 10 mM EGTA, 10 mM HEPES and 2 mM Na2ATP; pH 7.2 with CsOH and 330 mOsm/L. The free internal Ca^2+ concentration was buffered to 1 μM, according to the WCabuf software. The automated electrophysiological platform QPatch 16 from Sophion (Denmark) was used to carry out the compounds profiling. The series resistance and quality of seals were continuously monitored during the experiments. Data were analyzed using Sophion QPatch assay software 5.6 (Odense). Data were normalized using the maximum activation obtained during the pre-compound agonist application as the top value (1.0) and maximum inhibition induced by ML-204 as the bottom value (0.0). IC50 values were calculated using a least squares regression algorithm (Hill equation).
To monitor the ion currents, a voltage ramp from −100 mV to +100 mV, over 300 ms, was applied every 10 seconds, from a holding potential of −60 mV. Antagonist-mode: After recording for a minimum of 60 seconds control period, the EC60 concentration of the TRPC5 agonist, Rosiglitazone (30 μM), was applied to activate the channel. After reaching steady-state, co-application of increasing concentrations of test compound were applied followed by two applications of Rosiglitazone EC60 and a saturating concentration of the specific blocker ML-204 (100 μM).

## C[C@@H]1C(=O)N(C)c2nc(Oc3cccc(F)c3)n(Cc3ccc(Cl)cc3)c2C(=O)N1CCCO (single isomer, unassigned) [Compound 19]
  IC50: > 30 µM

## O=C1c2c(nc(Oc3cccc(OC(F)(F)F)c3)n2Cc2ccc(Cl)cc2)N2CCC[C@@H]2C(=O)N1CCCO (single isomer, unassigned) [Compound 23]
  IC50: 1 to 30 µM

## O=C1c2c(nc(Oc3cccc(OC(F)(F)F)c3)n2Cc2ccc(Cl)cc2)N2CCC[C@H]2C(=O)N1CCCO (single isomer, unassigned) [Compound 22]
  IC50: > 30 µM

## CN1CC(=O)N(CCCO)C(=O)c2c1nc(Oc1cccc(OC(F)(F)F)c1)n2Cc1ccc(Cl)cc1 [Compound 21, 1-[(4-chlorophenyl)methyl]-7-(3-hydroxypropyl)-4-methyl-2-[3-(trifluoromethoxy)phenoxy]-1H,4H,5H,6H,7H,8H-imidazo[4,5-e][1,4]diazepine-6,8-dione]
  IC50: 1 to 30 µM
